{
  "source": "patent US20110104361A1",
  "about": "“TASTE-IMPROVING AGENT FOR POTASSIUM SALT OR POTASSIUM SALT-CONTAINING FOOD OR DRINK” (OGAWA & CO., LTD., priority 2008, published 2011)",
  "key": {"[1]": {"test": "Organoleptic evaluation, meat sauce (Test Example 14)", "details": "addition quinic acid-containing composition 5.0 ppm, spilanthol 0.1 ppm, shallot extract 10.0 ppm, panel of 10 experts vs control", "procedure": "(§1) The taste-improving agents obtained in Production Examples 1-5 were used to examine the taste-improving effects on potassium salts or potassium salt-containing foods or drinks. [table] To reduced-sodium meat sauce having the following formulation 8 there were added each of the agents for improving taste of Production Examples 1, 2, 4 and 5 so that the contents of the quinic acid-containing compositions (Production Examples 1 and 2), purified spilanthol (Production Example 4) and shallot extract (Production Example 5) in the meat sauce were as listed in Table 12, and an organoleptic evaluation was conducted by a panel of 10 experts based on the rating scale shown in Table 1, with a product containing no agent for improving taste according to the invention, as the control. [table]"}, "[2]": {"test": "Organoleptic evaluation, ramen soup (Test Example 11)", "details": "addition quinic acid-containing composition 5.0 ppm, spilanthol 0.1 ppm, shallot extract 10.0 ppm, panel of 10 experts vs control", "procedure": "The taste-improving agents obtained in Production Examples 1-5 were used to examine the taste-improving effects on potassium salts or potassium salt-containing foods or drinks. [table] To reduced-sodium ramen soup having the following formulation 4 there were added each of the agents for improving taste of Production Examples 2, 4 and 5 so that the contents of the quinic acid-containing composition (Production Example 2), purified spilanthol (Production Example 4) and shallot extract (Production Example 5) in the soup were as listed in Table 8, and an organoleptic evaluation was conducted by a panel of 10 experts based on the rating scale shown in Table 1, with a product containing no agent for improving taste according to the invention, as the control. [table] A 20 g portion of the powder above was dissolved in 500 g of hot water."}, "[3]": {"test": "Organoleptic evaluation, potassium chloride aqueous solution (Test Example 5)", "details": "0.75 wt % KCl aqueous solution; addition quinic acid-containing composition 5.0 ppm, spilanthol 0.1 ppm, shallot extract 10.0 ppm; panel of 10 experts vs control without agent", "procedure": "The taste-improving agents obtained in Production Examples 1-5 were used to examine the taste-improving effects on potassium salts or potassium salt-containing foods or drinks. [table] To a 0.75 wt % potassium chloride aqueous solution there were added each of the agents for improving taste of Production Examples 1-5, so that the content of the quinic acid-containing compositions (Production Examples 1 and 2), spilanthol (Production Examples 3 and 4) or shallot extract (Production Example 5) in the potassium chloride aqueous solution was as listed in Table 2, and an organoleptic evaluation was conducted by a panel of 10 experts based on the rating scale shown in Table 1, with a product containing no agent for improving taste according to the invention, as the control."}, "[4]": {"test": "Organoleptic evaluation, cream stew (second Test Example 13)", "details": "addition quinic acid-containing composition 5.0 ppm, spilanthol 0.1 ppm, shallot extract 10.0 ppm, panel of 10 experts vs control", "procedure": "as §1, with “reduced-sodium cream stew” for “reduced-sodium meat sauce”, “formulation 7” for “formulation 8”, “the stew” for “the meat sauce”, “Table 11,” for “Table 12,”"}},
  "data": [
    {"smiles": "CC=CC=CCCC=CC(=O)NCC(C)C", "note": "[Purified spilanthol (Prod. Ex. 4), N-isobutyl-2,6,8-decatrieneamide]", "values": [
      {"measurement": "Meat flavor", "setting": "[1]", "result": "− (No effect/change (fewer than 3/10 panelists noticed an effect compared to the control))"},
      {"measurement": "Metallic taste", "setting": "[1]", "result": "+ (Somewhat noticeable effect (at least 3/10 panelists noticed an effect compared to the control))"},
      {"measurement": "Tomato flavor", "setting": "[1]", "result": "− (No effect/change (fewer than 3/10 panelists noticed an effect compared to the control))"},
      {"measurement": "Chicken flavor", "setting": "[2]", "result": "− (No effect/change (fewer than 3/10 panelists noticed an effect compared to the control))"},
      {"measurement": "Salty taste", "setting": "[2]", "result": "+ (Somewhat noticeable effect (at least 3/10 panelists noticed an effect compared to the control))"},
      {"measurement": "Unpleasant taste", "setting": "[2]", "result": "+ (Somewhat noticeable effect (at least 3/10 panelists noticed an effect compared to the control))"},
      {"measurement": "Metallic taste", "setting": "[3]", "result": "++ (Noticeable effect (at least 5/10 panelists noticed an effect compared to the control))"},
      {"measurement": "Milk flavor", "setting": "[4]", "result": "− (No effect/change (fewer than 3/10 panelists noticed an effect compared to the control))"},
      {"measurement": "Sweet taste", "setting": "[4]", "result": "− (No effect/change (fewer than 3/10 panelists noticed an effect compared to the control))"},
      {"measurement": "Unpleasant taste", "setting": "[4]", "result": "+ (Somewhat noticeable effect (at least 3/10 panelists noticed an effect compared to the control))"}
    ]}
  ]
}
